Measurements taken from patent US9422238B2, “ICMT inhibitors” (National University of Singapore, priority 2012, dated 2016).
Where “and” joins values, the source holds several entries; their conditions need not be identical. Equal values may be shown once.

Columns and labels:
PC3 cells [1] = assay: Colony formation (clonogenic) assay; format: cell-based, human; conditions: PC3, 2 weeks; 8-12 1-3 μM, cysmethynil 15-25 μM
Description: A flask ([…]) of PC3 cells in media (DMEM high glucose, 10% fetal bovine serum, 50 μg/mL penicillin, 50 μg/mL streptomycin) was grown to 80-90% confluency. The media was removed by pipetting and the cell layer washed with 1×PBS (5 mL). An aliquot of trypsin (1 mL, 0.25% trypsin-EDTA (1×)-phenol red, Invitrogen) was added to the plate, tapped gently for even distribution and incubated at 37° C., 5% CO2 for 1 min. The plate was quickly viewed under the microscope to confirm that cells have rounded up. Media (10 mL) was then added and the cell suspension transferred to a falcon tube (15 mL). An aliquot (10 μl) was transferred to a hemocytometer for cell counting. The suspension was then diluted to give the desired seeding concentration of 1000 cells per well in a 6-well plate. After seeding, the plate was gently tapped to help cells spread out within the wells. Plates were then incubated for 2 h (37° C., 5% CO2) for cell attachment to take place. The media was removed with a pipette, the cell layer in the well washed with PBS and replaced by a solution of the test compound in 2 mL of DMEM (containing 5% FBS, instead of 10% FBS). Test compounds were prepared in DMSO stock solutions. The final concentration of DMSO in the well was 0.05% v/v. Control plates were also prepared in which no test compound was added but with DMSO maintained at 0.05%. […]

PC3 cells [2] = assay: Apoptosis by Annexin V-FITC / propidium iodide staining; format: cell-based, human; conditions: PC3, 48 h; for % Apoptotic / % Necrotic / % Normal: one analysis only; for induction of apoptosis: one determination, preliminary
Description: The Annexing® V-FITC Apoptosis Detection Kit (BD Biosciences, Franklin Lakes, N.J.) was used PC3 cells were seeded at 65 000 cells per well in 6-well plates with DMEM (high glucose, supplemented with 10% FBS) as media. Plates were incubated (24 h, 37° C., 5% CO2) for cells to attach and then treated with test compound (prepared in same media but with 5% FBS) for 48 h. Final volume of DMSO per well was 0.05% v/v. After the specified time, the supernatant in the well was collected, the cell pellet was trypsinized, combined with the supernatant and pelleted by centrifugation (150 g, 5 min). The pellet was rinsed twice with cold 1×PBS and suspended in the proprietary binding buffer (1×) to give a concentration of 10^6 cells per mL. An aliquot (100 μL) of the suspension containing 10^5 cells was transferred to the FACS tube (5 mL) to which was added Annexin® V-FITC solution (5 μL) and propidium iodide (PI) solution (5 μL). The solution was gently vortexed, incubated in the dark for 15 min at room temperature (25° C.), after which was added 400 μL of the binding buffer (1×). The sample was analyzed immediately or no later than 1 h, in which case it should be kept in ice and protected from light. Analysis was carried out on a FCS500 flow cytometer (Beckman Coulter, CA) using the FlowJo® software (http: http://www.flowjo.com/). Controls comprised untreated cells, cells exposed to Annexin® V-FITC only, and cells exposed to PI only. Each test compound was evaluated at 4 concentrations. Only 1 determination was made per concentration.

[3] = Parallel Artificial Membrane Permeability Assay (PAMPA); conditions: for Papp at 16 h: PAMPA, pH 7.4
Description: Briefly, determinations were carried out on MultiScreen-IP PAMPA assay (donor) plates (MAIPNTR10) and MultiScreen Receiver Plates (MATRNPS50) from Millipore Corporation (USA) with 1% lecithin (L-α-phosphatidylcholine from lyophilized powder of egg yolk, Sigma Aldrich, USA) in dodecane (ReagentPlus®, Sigma Aldrich, USA) as lipid barrier. 5 μL of 1% lecithin in dodecane was dispensed into the wells of the donor plates. […] The mobile phase was Milli-Q water (0.1% formic acid) and acetonitrile (0.1% formic acid), run on gradient.
Pe was obtained from Equation 1:
[formula] Where VA and VD are the volumes of acceptor (cm^3) and donor (cm^3) wells respectively, A is the area of the surface area of the membrane (0.24 cm^2), t is the permeation time (s); S is the fraction of sample remaining in the donor and acceptor wells after permeation time and is determined from Equation 2, CA and CD are the concentrations (μM) of test/reference compound in acceptor and donor wells respectively.
The Pe of each compound was obtained from at least 3 separate experiments using no less than 2 different stock solutions. For each independent determination, triplicates (3 wells) were run for each compound.

## CCCCCCCCn1cc(CC(N)=O)c2cc(-c3cccc(C)c3)ccc21 [Cysmethynil, 2-[5-(3-methylphenyl)-1-octyl-1H-indolo-3-yl]acetamide, reference compound]
PC3 cells [1]
  colony formation: Colony formation was observed with 15 μM cysmethynil but not at higher concentrations (17.5 to 25 μM)
PC3 cells [2]; 12.5 μM
  % Apoptotic: 0.92%
  % Necrotic: 6.94%
  % Normal: 92.1%
PC3 cells [2]; 17.5 μM
  % Apoptotic: 1.96%
  % Necrotic: 8.33%
  % Normal: 89.7%
PC3 cells [2]; 20.0 μM
  % Apoptotic: 1.23%
  % Necrotic: 8.06%
  % Normal: 90.7%
PC3 cells [2]; 22.5 μM
  % Apoptotic: 1.21%
  % Normal: 89.6%
PC3 cells [2]
  induction of apoptosis: not found to induce apoptosis

## CCCCCCCCn1cc(CN(CC)CC)c2cc(-c3cnc(N)nc3)ccc21 [Compound 8-12, 5-(3-Diethylaminomethyl-1-octyl-1H-indol-5-yl)-pyrimidin-2-ylamine]
PC3 cells [1]
  colony formation: colony formation was evident only at the lowest concentration of 1 μM and not at higher concentrations (1.5 to 3 μM)
[3]
  Papp at 16 h: 14.2 ×10⁻⁶ cm/s
[3]; pH 7.4, 16 h agitation, 1% lecithin in dodecane
  PAMPA Pe (×10^−6 cm/s): 14.2 ×10^−6 cm/s and 14.2 (±1.4) ×10^−6 cm/s
PC3 cells [2]; 0.4 μM
  % Apoptotic: 1.45%
  % Necrotic: 4.95%
  % Normal: 93.6%
PC3 cells [2]; 0.8 μM
  % Apoptotic: 1.31%
  % Necrotic: 6.85%
  % Normal: 91.8%
PC3 cells [2]; 1.0 μM
  % Apoptotic: 0.71%
  % Necrotic: 8.84%
  % Normal: 90.4%
PC3 cells [2]; 1.2 μM
  % Apoptotic: 0.93%
  % Necrotic: 7.43%
  % Normal: 91.6%
PC3 cells [2]
  induction of apoptosis: Induction of apoptosis was also not observed

## CCCCCCCCn1c2c(c3cc(-c4cnc(N)nc4)ccc31)CN(C)CC2 [Compound 305, 8-(2′-amino-pyrimidin-5′-yl)-2-methyl-5-n-octyl-1,2,3,4-tetrahydropyrido[4,3-b]indole]
[3]
  Papp at 16 h: 19.7 ± 0.56 ×10⁻⁶ cm/s
